Reference: patent US9453017B2, “Antiviral therapies with phospholipase D inhibitors” (Vanderbilt University, priority 2011, dated 2016)
Read-outs that look alike come from different tables or passages of the source.

Tests used:
[1] = test system: A549 cells infected with A/Puerto Rico/8/1934; assay: Viral nucleoprotein (NP) / Rab11 trafficking (FIG. 8g); assay type: cell-based, human; details: 5 μM; A/Puerto Rico/8/1934, MOI=5; 16 hr infection
From the text: (§1) Samples were fixed in 4% formaldehyde, permeabilized with 0.3% Triton X-100, and then exposed to antisera targeting proteins of interest and corresponding fluorescent secondary antibodies alongside DAPI to visualize nuclei. Focal infections were imaged and processed using a Nikon C1Si and NIS Elements software. Confocal images were captured with a Zeiss LSM 510 NLO Meta and analyzed with Zeiss Zen 2011 software and ImageJ.
(§2) (i) Quantitation of the area of positive Mx1 staining, n=4 for DMSO and n=5 for drug treatments. ANOVA and Dunnett's post test were used to determine significance of changes when PLD inhibitors were used, and a t-test was used when cells were treated with alcohol, * p<0.05, ** p<0.01, ***, p<0.001, **** p<0.0001. Data in (b, d, f, i) is mean±SEM, n=3 fields of at least 15 cells.

A/Puerto Rico/8/1934 = assay: Traditional plaque assay in MDCK cells (FIG. 14a); details: 10 μM, vs DMSO treated control
[2] = test system: A/California/04/2009 (H1N1); assay type: cell-based, influenza virus
PR8 influenza A virus = assay: In vivo mouse model of influenza infection, 30 mg/kg (FIGS. 3, 4); details: 30 mg/kg intraperitoneal twice daily for 7 days; for survival of infected mice: FIG. 4
Protocol: A mouse model of influenza infection was used to test the in vivo efficacy of representative disclosed compounds. Compounds were administered at 30 mg/kg and the mice were infected with PR8 influenza A virus. Briefly, C57BL/6J mice (female 8- to 10-wk-old; purchased from The Jackson Laboratory and held under pathogen-free conditions at St. Jude Children's Research Hospital) were used in these studies. Mice were anesthetized by i.p. injection with Avertin (2,2,2-tribromethanol; prepared in-house) before intranasal (i.n.) infection with 80% infective dose (EID80) units of the PR8 influenza A virus in PBS. Mice were administered either the indicated PLD inhibitor (30 mg/kg) or vehicle intraperitoneal starting at 24 hr per exposure. Compounds were administered twice daily for 7 days and subjects were measured for changes in body weight (FIG. 3) or survival (FIG. 4) as a function of PLD inhibitor administration. Mice were sacrificed if moribund.

[3] = test system: PR8 (A/Puerto Rico/8/1934); assay: Lethal influenza infection in mice, JWJ 13 mg/kg (FIG. 9); assay type: in vivo, mouse
influenza virus = assay type: cell-based; details: 10 μM compound; compared to vehicle; FIG. 2
phospholipase D (PLD) = assay type: cell-based, human; details: 10 μM; A549 cells infected with California/04/2009 at 1 MOI; 6 hours post-infection; FIG. 6
[4] = test system: A/Brisbane/59/2007 (H1N1); assay type: cell-based, influenza virus; details: for infected cells, A/Brisbane/59/2007: 10 μM, vs DMSO vehicle
[5] = test system: RAB5 and CD63 in A549 cells infected with A/California/04/2009; assay: Diffuse infection model, RAB5 and CD63 recruitment (FIG. 8c-f); assay type: cell-based, human
Protocol: (§3) A549 cells were seeded onto chamber slides and allowed to adhere overnight. The cells were washed with PBS, and serum-free medium containing treatment was added to the cells. After one hour of treatment, the medium was removed and replaced with serum-free medium containing treatment and 0.05 MOI influenza virus. The infected cultures were kept at 4° C. for 15 minutes before being incubated at 37° C. At appropriate times, cultures were removed and fixed with […] and processed for microscopy as above. Z stacks were acquired using a Zeiss LSM 510 microscope, and images were analyzed with ImageJ (Java-based software available from NIH). Data was processed as above.
as §1, §2

[6] = Pharmacokinetics after intraperitoneal injection in mice (FIG. 15); assay type: in vivo; details: mouse
Protocol: The pharmacokinetic behavior of a representative disclosed PLD inhibitor of the present invention was assessed following intraperitoneal administration in a mouse model. Briefly, mice were administered a single dose of the PLD inhibitor VU0364739 (10 mg/kg) by intraperitoneal injection. Tissue (brain, lung, and liver) and plasma samples were isolated following euthanizing animals (N=2 for each time point) at the indicated time points (see FIG. 15). The samples were flash frozen and stored at −80° C. Analysis was carried out by LC-MS/MS following extraction.

[7] = test system: clathrin in A549 cells infected with A/Brisbane/59/07; assay: Diffuse infection model, clathrin accumulation (FIG. 8a-b); assay type: cell-based, human
Protocol: as §3, §1, §2

influenza virus strains = assay type: cell-based
[8] = 10 μM PLD inhibitor, vs DMSO control
[9] = 50 minutes post-infection, 0.05 MOI, vs DMSO
[10] = 80 minutes post-infection, 0.05 MOI, vs DMSO

Which “viral nucleoprotein (NP) trafficking” value [1] does the source give for O=C(NCCN1CCC2(CC1)C(=O)NCN2c1cccc(F)c1)c1ccc2ccccc2c1 [No. 1, N-(2-(1-(3-fluorophenyl)-4-oxo-1,3,8-triazaspiro[4.5]decan-8-yl)ethyl)-2-naphthamide] here?
The value was “trafficking was disrupted”.

What about the plaque formation (A/Puerto Rico/8/1934) of the same compound?
Its plaque formation is “less plaque formation”.

And the “protection from A/California/04/2009 infection” value [2]?
The value was “protected (p<0.05)”.

What about the “protection from A/California/04/2009 infection” value ([2]; 10 μM, […], vs vehicle control) of the same compound?
The value was “significant protection”.

And the “survival of infected mice” value (PR8 influenza A virus)?
Its value is “survival improved”.

And the “less likely to die” value ([3]; 13 mg/kg intraperitoneal, 4000 EID50 PR8, Log-Rank p=0.0061, FIG. 9b)?
The value was “about 27%”.

What about the “mice that survived (of cohort)” value ([3]; 13 mg/kg intraperitoneal, 4000 EID50 PR8, vehicle one out of 42) of the same compound?
The value was 12/38.

What about the “recovery of weight lost” value ([3]; 13 mg/kg intraperitoneal, 4000 EID50 PR8, vs vehicle) of the same compound?
Its value is “recovered the weight lost more quickly”.

And the weight loss ([3]; 13 mg/kg intraperitoneal, 4000 EID50 PR8, vs vehicle, FIG. 9a)?
Its weight loss is “lost significantly less weight”.

And the “virus in lungs (plaque assay)” value ([3]; 8 hours after infection, p=0.0017, FIG. 9c)?
Its value is “significantly less virus”.

And the innate immune response ([3]; 8 hours after infection, vs vehicle)?
Its innate immune response is “more activated innate immune response”.

And the “infection of A549 cells” value (influenza virus)?
Its value is “blocked infection of A549 cells”.

And the “formation of PtdBuOH” value (phospholipase D (PLD))?
Its value is “inhibited”.

And the “protection from A/Brisbane/59/2007 infection” value [4]?
Its value is “still significantly protected”.

And the “infected cells, A/Brisbane/59/2007” value [4]?
Its value is “significantly fewer (p<0.001) infected cells”.

What about the CD63 accumulation [5, 8] of the same compound?
Its CD63 accumulation is “significantly less CD63”.

And the “accumulation in liver and lung” value ([6]; in vivo, ip, 10 mg/kg)?
The value was “elevated accumulation in liver and lung compared to plasma”.

What about the accumulation in brain ([6]; single dose 10 mg/kg intraperitoneal, 15 min to 3 hr post-administration) of the same compound?
The accumulation in brain was “appeared to be constant”.

What about the “exposure in tissues (brain, lung, liver) and plasma” value ([6]; single dose 10 mg/kg intraperitoneal, FIG. 15) of the same compound?
The value was “sustained exposure in the tissues examined and in plasma over a period of at least three hours”.

And the clathrin accumulation [7, 9]?
Its clathrin accumulation is “accumulated less clathrin”.

And the clathrin accumulation [7, 10]?
Its clathrin accumulation is “persisted at least until 80 minutes”.

Which results are given for C[C@@H](CN1CCC(n2c(=O)[nH]c3cc(Br)ccc32)CC1)NC(=O)[C@@H]1C[C@@H]1c1ccccc1 [No. 2, (1R,2S)-N-((S)-1-(4-(5-bromo-2-oxo-2,3-dihydro-1H-benzo[d]imidazol-1-yl)piperidin-1-yl)propan-2-yl)-2-phenylcyclopropanecarboxamide]?
viral nucleoprotein (NP) trafficking [1]: trafficking was disrupted; plaque formation (A/Puerto Rico/8/1934): less plaque formation; survival of infected mice (PR8 influenza A virus): particularly profound; weight loss associated with virus infection (PR8 influenza A virus; vs vehicle (10% Tween 80), through about day 11 post-infection, FIG. 3): trend of the test compound to protect infected mice against weight loss; infection of A549 cells (influenza virus): blocked infection of A549 cells; protection from A/Brisbane/59/2007 infection [4]: still significantly protected; infected cells, A/Brisbane/59/2007 [4]: significantly fewer (p<0.001) infected cells; CD63 accumulation [5, 8]: significantly less CD63; clathrin accumulation [7, 9]: accumulated less clathrin; clathrin accumulation [7, 10]: persisted at least until 80 minutes

Which “protection from A/California/04/2009 infection” value ([2]; 10 μM, […], vs vehicle control) does the source give for O=C(NCCN1CCC(n2c(=O)[nH]c3ccccc32)CC1)c1ccc2ccccc2c1 [No. 3, N-(2-(4-(2-oxo-2,3-dihydro-1H-benzo[d]imidazol-1-yl)piperidin-1-yl)ethyl)-2-naphthamide] here?
Its value is “significant protection”.

And the “infection of A549 cells” value (influenza virus)?
The value was “blocked infection of A549 cells”.

And the “protection from A/Brisbane/59/2007 infection” value [4]?
The value was “still significantly protected”.

And the “infected cells, A/Brisbane/59/2007” value [4]?
Its value is “significantly fewer (p<0.001) infected cells”.

What about the CD63 accumulation [5, 8] of the same compound?
Its CD63 accumulation is “significantly less CD63”.

What about the clathrin accumulation [7, 9] of the same compound?
Its clathrin accumulation is “accumulated less clathrin”.

With CCCCO [n-butanol, reference compound] as the compound, how does the “protection from productive infection, A/California/04/2009” value [2] read?
Its value is “significantly protected from a productive infection”.

What about the “virus infection of A549 cells” value (influenza virus strains) of the same compound?
The value was “has a significant effect on virus infection of A549 cells”.

And the “protection from productive infection, A/Brisbane/59/2007” value [4]?
Its value is “significantly protected from a productive infection”.

What about the CD63 accumulation ([5]; 0.6% alcohol, vs respective control (tert-butanol)) of the same compound?
Its CD63 accumulation is “significantly less CD63”.

And the clathrin accumulation ([7]; 0.6% alcohol, 80 minutes after infection, compared to tert-butanol)?
The clathrin accumulation was “significantly less clathrin had accumulated”.

With CC(C)(C)O [tert-butanol] as the compound, how does the “virus infection of A549 cells” value (influenza virus strains) read?
Its value is “does not have any effect on virus infection of A549 cells”.
